Results on 29 molecules are retold here after patent US9012419B2, “Methods and compositions related to eosinophil regulation” (University of Utah Research Foundation, priority 2006, dated 2015).

Where “and” joins values, the source holds several entries; their conditions need not be identical. Equal values may be shown once. Where a name gives a salt, the structure may show the parent alone. Read-outs that look alike come from different tables or passages of the source.

In assay [1] the test system is EPO stimulated TF-1 cells. The assay can be described thus: TF-1 cell proliferation assay, EPO stimulated cultures. It counts as cell-based. To be noted: Homo sapiens. Here is the method: (§1) Controls and test compounds were assayed in serial dilutions, ranging from 1 mM to 0.5 uM, against TF-1 cell proliferation. Compounds were solublized in DMSO in 0.2M solutions followed by serial dilutions with the culture media.
(§2) Each dilution of the compounds was tested in triplicate in a 96 well, flat bottom tissue culture plate with 10,000 TF-1 cells per well for their abilities to inhibit IL-5 and/or EPO stimulated cultures. Wells without cells were used for the background signals. Both IL-5 and EPO stimulated cell cultures were tested in assays performed on the same day. Cultures were incubated for 72 hours in a 37° C. humidified incubator. At the end of the incubation, CellTiter AQueous One Solution (Promega, Madison, Wis.) was added for 1 to 3 hours, depending on the rate of color change. Following sufficient color change, the plates were read on a spectrophotometer (SpectraMax 190, Molecular Devices) at 490 nm.
(§3) IC-50 and […] values were calculated using the software SOFTmax Pro (Molecular Devices, Sunnyvale, Calif.).
(§4) Compounds were screened by inspecting the IC-50 values of the drug candidate on the proliferation assay. […] Potencies of the investigated compounds in inhibiting TF-1 cell proliferation were evaluated by comparing their IC-50 values relative to lidocaine. Due to the ability of TF-1 cells to be stimulated by a variety of cytokines, specificity can be evaluated by comparing IL-5 and EPO stimulated cell cultures IC-50 values. Specificity or differential inhibition (Di) values can be calculated for the investigated compounds using equation 1. Di=EPO IC-50/IL5 IC-50 (equation 1)

Assay [2] relates to IL-5 stimulated TF-1 cells. The assay can be described thus: TF-1 cell proliferation assay, IL-5 stimulated cultures. The note with it: for Di: Di=EPO IC-50/IL5 IC-50; for IL-5 IC-50 compared with lidocaine: in words. It is filed as cell-based, human. Here is the method:
as §1, §2, §3, §4

The conditions of assay [3]: nebulized, Hunt, cited from earlier work.
Another assay deals with T1, IL-5 (Homo sapiens, UniProt P05113).
T1 construct: Administration of the anti-IL-5 drug, mepolizumab, to patients with mild asthma reduced blood and sputum eosinophils; host or cells: endogenous IL-5 in human patients with mild asthma (in vivo)
To be noted: patients with mild asthma; Leckie, 2000; cited from earlier work.

Where [4] appears, read: Table 7, TF-1 cells with EPO (2 units/mL), 72 hours, read-out: EPO IC-50.
[5] abbreviates: Homo sapiens, TF-1, 72 h, Table 6, TF-1 cells with IL-5 (5 ng/mL), 72 hours, read-out: IL-5 IC-50.
Setting [6] is: Homo sapiens, TF-1, 72 h, Table 7, TF-1 cells with IL-5, 72 hours, read-out: IL-5 IC-50.
Where [7] appears, read: Homo sapiens, TF-1, text, IL-5 stimulated TF-1 cells, read-out: IL-5 IC-50.

T1 sequence (P05113 20-134): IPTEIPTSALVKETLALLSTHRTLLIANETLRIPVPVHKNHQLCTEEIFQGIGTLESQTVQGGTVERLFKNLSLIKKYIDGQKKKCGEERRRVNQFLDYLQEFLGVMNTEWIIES

As to `Cc1cccc(C)c1NC(=O)Cc1ccccc1` [Compound 22, N-(2,6-dimethylphenyl)-2-phenylacetamide], the IC50 was 129 µM in assay [1] (setting [4]), 96 µM in assay [2] (setting [5]) and 95.5 µM in assay [2] (setting [6]). In assay [2] (Table 7), this molecule showed a Di of 1.351. Also, the “IL-5 IC-50 compared with lidocaine” value in assay [2] is listed as “lower than lidocaine's”.
Consider `O=C(CN1CCN(c2ncccn2)CC1)Nc1ccc(F)cc1F` [Compound 5, N-(2,4-difluorophenyl)-2-(4-pyrimidin-2-ylpiperazinyl)ethanamide], for which the IC50 in assay [2] (setting [5]) and in assay [2] (setting [7]) was 5 µM in each case.
In the case of `CCCCOc1cc(C(=O)OCCN(CC)CC)ccc1N` [Compound 24, Benoxinate, reference compound], in assay [2] (setting [5]), the IC50 was 98 µM.
Still for that read-out and setting: under `c1ccc2c(c1)OCC(C1=NCCN1)O2` (stereo not drawn) [Compound 23, Idazoxan Hydrochloride, reference compound] stands 97 µM.
With `Cc1cccc(C)c1NC(=O)C(C)(C)C` [Compound 18, N-(2,6-dimethylphenyl)pivalamide], in assay [2] (setting [5]), the IC50 came to 79 µM. Also, the “IL-5 IC-50 compared with lidocaine” value in assay [2] is given as “lower than lidocaine's”.
On to `Cc1cccc(C)c1NC(=O)CCC(C)C` [Compound 26, 4-methyl-N-(2,6-dimethylphenyl)-pentanamide], for which, in assay [2] (setting [5]), the IC50 amounted to 119 µM. Further, the “IL-5 IC-50 compared with lidocaine” value in assay [2] was “lower than lidocaine's”.
Consider `O=C(O)COC1Cc2ccccc2CN1` (stereo not drawn) [Compound 10, 3-Carboxymethoxy-1,2,3,4-Tetrahydroisoquinol], for which the IC50 in assay [2] (setting [5]) amounted to 26 µM.
As to `Cc1ccccc1C(=O)NCc1cccnc1` [Compound 20, 2-methyl-N-(3-pyridinylmethyl)benzamide], the IC50 stood at 153 µM in assay [1] (setting [4]), 90 µM in assay [2] (setting [5]) and 90 µM in assay [2] (setting [6]). In addition, the Di in assay [2] (Table 7) came to 1.700.
Consider `CCN(CC)CC(=O)Nc1c(C)cccc1C` [Compound 1, Lidocaine, reference compound], for which the IC50 worked out at 200 µM in assay [1] (setting [4]); 147 µM in assay [2] (setting [5]); 147 µM in assay [2] (setting [6]); 147 µM in assay [2] (Homo sapiens, TF-1, text b313, TF-1 cell proliferation, read-out: IC-50 (fifty percent growth inhibition)); 140 µM in assay [2] (setting [7]). Moreover, the Di in assay [2] (Table 7) was found to be 1.361. The “prednisolone-dependent patients able to eliminate or significantly reduce steroid usage” value in assay [3] (1996) is 17 out of 20. In assay [3] (placebo controlled study, mild to moderate asthma, 2004), the blood eosinophil levels entry is reported as “decreased”.
For `CN1CCC(=C2c3ccccc3CC(=O)c3sccc32)CC1` [Compound 3, Ketotifen fumarate, reference compound], the IC50 in assay [1] (setting [4]), in assay [2] (setting [5]), in assay [2] (setting [6]) and in assay [2] (setting [7]) was 9 µM in each case. Besides, the Di in assay [2] (Table 7) turned out to be 1.000.
As for `CCCCOc1cc(C(=O)NCCN(CC)CC)c2ccccc2n1` [Compound 13, Dibucaine Hydrochloride, reference compound], the IC50 in assay [2] (setting [5]) was 48 µM.
Regarding `Nc1ccc2c(c1)OCCO2` [Compound 16, 3,4-Ethylenedioxyaniline], the IC50 in assay [1] (setting [4]) was 136 µM; in assay [2] (setting [5]), 69 µM; in assay [2] (setting [6]) it was 69 µM. The Di in assay [2] (Table 7) was determined as 1.971.
For `CC(C)(C)OC(=O)Nc1ccc(C(=O)NCC(=O)O)cc1` [Compound 6, Boc-4-aminohippuric Acid], in assay [2] (setting [5]), the IC50 amounted to 19 µM.
Regarding `CCN(CC)CC(=O)Nc1c(C)cccc1C.Cl` [Compound 19, Lidocaine HCL, reference compound], the IC50 in assay [1] (TF-1, 72 h, read-out: EPO IC-50, Table 7, TF-1 cells with EPO (2 units/mL)) was 276 µM; in assay [2] (Homo sapiens, TF-1, 72 h, read-out: IL-5 IC-50), 84 µM. In assay [2] (Table 7), this molecule yielded a Di of 3.286.
Consider `CCCCCC(=O)Nc1c(C)cccc1C` [Compound 15, N-(2,6-dimethylphenyl)hexanamide], for which the IC50 was determined as 137 µM in assay [1] (setting [4]), 62 µM in assay [2] (setting [5]) and 62 µM in assay [2] (setting [6]). In assay [2] (Table 7), the Di is reported as 2.210. Also, in assay [2], the “IL-5 IC-50 compared with lidocaine” value is “lower than lidocaine's”.
On to `Nc1ccc(C(=O)NCc2cccnc2)cc1` [Compound 4, 4-Amino-N-pyridin-3-yl-methyl-benzamide], for which the IC50 was found to be 1.9 µM in assay [1] (setting [4]), 1.3 µM in assay [2] (setting [5]), 1.3 µM in assay [2] (setting [6]) and 1.3 µM in assay [2] (setting [7]). Further, in assay [2] (Table 7), the Di came to 1.471.
As to `CC[N+](CC)(CC(=O)Nc1c(C)cccc1C)Cc1ccccc1` [Compound 28, Denatonium Saccharide], the IC50 in assay [2] (setting [5]) was found to be 136 µM.
The same measure, in the same setting: under `Cc1cccc(C)c1NC(=O)C(C)N` (stereo not drawn) [Compound 14, Tocainide HCL, reference compound] stands 49 µM; under `C[C@@H](O)[C@H](NC(=O)c1ccccc1)C(=O)O` [Compound 11, N-Benzoyl-L-Threonine], 30 µM.
On to `CCN(CC)CCOC(=O)c1ccc(N)cc1` [Compound 17, Procaine, reference compound], for which the IC50 in assay [1] (setting [4]) amounted to 109 µM; in assay [2] (setting [5]), 71 µM; in assay [2] (setting [6]), 71 µM. In assay [2] (Table 7), the Di stood at 1.535.
Regarding `CCCCN1CCCCC1C(=O)Nc1c(C)cccc1C` (stereo not drawn) [Compound 25, Bupivicaine Hydrochloride, reference compound], the IC50 in assay [2] (setting [5]) came to 107 µM.
Turning to `Cc1cccc(C)c1NC(=O)c1ccnc2ccccc12` [Compound 9, N-(2,6-dimethylphenyl)quinoline-4-carboxamide], in assay [2] (setting [5]), the IC50 came to 24 µM. Also, in assay [2], the “IL-5 IC-50 compared with lidocaine” value was “lower than lidocaine's”.
`CN1CCOc2cc(C(=O)O)ccc21` [Compound 21, 4-methyl-3,4-dihydro 2H-1,4-benoxazine 7 carboxylic acid]: the IC50 in assay [1] (setting [4]) was determined as 130 µM; in assay [2] (setting [5]) it was 92 µM; in assay [2] (setting [6]), 91.8 µM. The molecule also returned a Di in assay [2] (Table 7) of 1.412.
For the molecule `CN1CCOc2cc(Br)ccc21` [Compound 8, 7-Bromo-4-methyl-3,4-dihydro-2H-1,4-benzoxazine], the IC50 in assay [2] (setting [5]) stood at 24 µM.
Regarding `O=C(O)C1CNc2ccccc2O1` (stereo not drawn) [Compound 12, 3,4-Dihydro-2H-1,4-Benzoxazine-2-Carboxylic Acid], the IC50 in assay [2] (setting [5]) came out at 38 µM.
As to `C[C@@H]1C[C@H]2[C@@H]3CCC4=CC(=O)C=C[C@]4(C)[C@@]3(F)[C@@H](O)C[C@]2(C)[C@@]1(O)C(=O)CO` [Compound 2, Dexamethasone, reference compound], the IC50 in assay [1] (setting [4]) came to 38 µM; in assay [2] (setting [5]), 9 µM; in assay [2] (setting [6]) it was 7 µM; in assay [2] (setting [7]) it was 4 µM. Further, the Di value in assay [2] (EPO IC-50/IL5 IC-50) was 5.136 and 5.14. The molecule further showed a Di in assay [2] (Table 7) of 5.136.
For `CC1COc2c(F)c(F)cc3c(=O)c(C(=O)O)cn1c23` (stereo not drawn) [Compound 7, 9,10-Difluoro-2,3-dihydro-3-methyl-7-oxo-7H-pyrido[1,2,3-DE]-1,4-benzoxazine-6-carboxylic acid], in assay [2] (setting [5]), the IC50 turned out to be 20 µM.
As for “Disopyramide [Compound 27, reference compound]”, the IC50 in assay [2] (Table 6, TF-1 cells with IL-5 (5 ng/mL), 72 hours, read-out: IL-5 IC-50) stood at 129 µM.

B1: mepolizumab: anti-IL-5 drug (antibody, chains of the INN, looked up, V domains shown)
VH: QVTLRESGPALVKPTQTLTLTCTVSGFSLTSYSVHWVRQPPGKGLEWLGVIWASGGTDYNSALMSRLSISKDTSRNQVVLTMTNMDPVDTATYYCARDPPSSLLRLDYWGRGTPVTVSS
VL: DIVMTQSPDSLAVSLGERATINCKSSQSLLNSGNQKNYLAWYQQKPGQPPKLLIYGASTRESGVPDRFSGSGSGTDFTLTISSLQAEDVAVYYCQNVHSFPFTFGGGTKLEIK
Turning to B1, the “blood and sputum eosinophils” value with IL-5 is recorded as “reduced”.
